The test system of data set [1] is sarcoma S 180. Nature of the data set: Anti-tumour activity, sarcoma S 180 ascite, i.p. graft, i.p. treatment. Type of data set: in vivo, mouse (Swiss female). Conditions: for ILS: single i.p. on D1. As for the experimental part:
Swiss female mice (Evic-Ceba, Bordeaux) of 20 to 22 g
10^6 cells intraperitoneally grafted on D0
intraperitoneal treatment 24 hours later, D1, in one single injection.
(§1) The solutions of these compounds were prepared extemporaneously.

In data set [2] the test system is leukemia L 1210. Description: Anti-tumour activity, leukemia L 1210, i.p. graft, i.p. treatment. As for the experimental part: […] females (CNRS, Orleans) of 20 to 22 g
(a) i.p. graft--i.p. treatment
10^5 cells were grafted intraperitoneally on D0 and intraperitoneal treatment was carried out 24 hours later, D1, in one single injection.
PHD and PHM were suspended in a 4% Klucel (hydroxy propyl cellulose) solution (the word "Klucel" is a registered trademark of Hercules Incorporated, Delaware, U.S.A.).
The solutions of these compounds were prepared extemporaneously. The increase in life span, ILS (%), were calculated in comparison with the controls by the following formula: [formula] Deaths were recorded until day 30 for L 1210 tumour and until day 60 for S180 tumour.

Data set [3] concerns abdominal viscera. Description: Peritonitis (adhesion and hardening of abdominal viscera). Type of data set: in vivo, mouse. As for the experimental part: as §1
As discussed above this problem seems to be linked to the presence of the 1,2-diaminocyclohexane ligand.

Data set [4] relates to L 1210 cells. Nature of the data set: Cytotoxicity on L 1210 cells in culture. It counts as cell-based. To be noted: read-out: ID50 (reduces by 50% the rate of growth of the cells); usually 24 to 48 hours contact.
The test system of data set [5] is DNA. Description: Platinum fixed on DNA of L 1210 cells in vivo. Conditions: PDD 9 mg/kg, PHIC 150 mg/kg; two hours after treatment on D3. On the set-up: species or system mouse (DBA/2). The method, then: DBA/2 mice received 10^6 L 1210 cells on D0 and were treated three days later with an amount of platinum compound equal to the LD0 in the healthy mouse. Two hours after treatment on D3, the animals were sacrificed. […] Platinum was monitored by atomic absorption for whole cells and also on the DNA which was purified by phenol extraction. […] Under these conditions, one fixed platinum atom per 3000 nucleotides was found, i.e. a total of 1% of the amount which penetrated the cells was complexed to DNA. […] 10^-16 of platinum per cell.

For data set [6], the system named is mouse. Description: Acute toxicity in the mouse. Type of data set: in vivo, mouse (Swiss female). To be noted: mouse, one single injection. As for the experimental part:
Acute toxicity, one single injection of the compound, was measured using Swiss female mice (Evic-Ceba, Bordeaux) of 21 to 23 g. and Sprague-Dawley rats. Ten animals were treated for each dose studied.

Data set [7] concerns renal and hepatic parenchyma. Description: Renal and hepatic toxicity. Type of data set: in vivo, mouse (Swiss female). As for the experimental part: It was thus of interest to compare the effects of the novel compound of the invention with those of the already known compounds listed above on the kidney and the liver, i.e. the organs in which the greatest amount of platinum accumulates.
Swiss female mice (Evic-Ceba, Bordeaux) of 20 to 22 g were treated by intraperitoneal route D0 and then sacrificed on D1, D4 and D10.
Slices 5 microns thick were coloured with hemalun eosine stain.

Data set [8] in a line: Stability in sodium chloride solution. It counts as physicochemical. To be noted: 9% sodium chloride. The method, then: This compound has an exceptionally high degree of solubility.
as §1

The mark [9] stands for this setting: S 180, 4 mg/kg i.p. on D1, day 60.
Setting [10] is: L 1210, 4 mg/kg i.p. on D1, day 30.
Where [11] appears, read: S 180, 1 mg/kg i.p. on D1, day 60.
Where [12] appears, read: S 180, 2 mg/kg i.p. on D1, day 60.
The mark [13] stands for this setting: S 180, 5 mg/kg i.p. on D1, day 60.
The mark [14] stands for this setting: S 180, 10 mg/kg i.p. on D1, day 60.
[15] abbreviates: S 180, 50 mg/kg i.p. on D1, day 60.

One may read the ILS as the gain in survival time of treated over control animals, in per cent. Read a low ILS as little gain in survival. Consider `N.N.[Cl][Pt][Cl]` [PDD, cis-dichlorodiammine platinum (II)], for which the ILS is on record as 41% in data set [1] (4 mg/kg); 65% in data set [1] (8 mg/kg); 28% in data set [2] (2 mg/kg, single i.p. on D1); 52% in data set [2] (4 mg/kg, single i.p. on D1); 75% in data set [2] (6 mg/kg, single i.p. on D1); 106% in data set [2] (8 mg/kg, single i.p. on D1). Besides, the Survivals in data set [1] (setting [9]) is 0%; in data set [1] (S 180, 8 mg/kg i.p. on D1, day 60), 0%; in data set [2] (setting [10]), 0%; in data set [2] (L 1210, 6 mg/kg i.p. on D1, day 30), 0%; in data set [2] (L 1210, 8 mg/kg i.p. on D1, day 30), 0%. In data set [2] (summary for L 1210 and S 180), the “Surviving animals having received L 1210 leukaemia and S 180 sarcoma” value is “No”. Moreover, the “occurrence of peritonitis in relation to the 1,2-diaminocyclohexane ligand” value (shortened to “occurrence of peritonitis in relation”) in data set [3] (mouse, in vivo, ip) is reported as “never observed”. The IC50 in data set [4] worked out at 2330 nM. Moreover, the “Number of fixed platinum atoms per nucleotide on DNA” value in data set [5] is 1/30000. The “amount that penetrated the cells which was complexed to DNA” value in data set [5] is 1%. In data set [5], the “nucleotides per one fixed platinum atom” value amounted to 3000 nucleotides.

Regarding `NC1CCCCC1N.[Cl][Pt][Cl]` (stereo not drawn) [PHD, CIS-DICHLORO(1,2-DIAMINOCYCLOHEXANE) PLATINUM (II)], the ILS is listed as 100% in data set [1] (1 mg/kg); 128% in data set [1] (2 mg/kg); 127% in data set [1] (4 mg/kg); 5% in data set [2] (1 mg/kg, single i.p. on D1); 49% in data set [2] (2 mg/kg, single i.p. on D1); 65% in data set [2] (4 mg/kg, single i.p. on D1). In addition, the Survivals came out at 0% in data set [1] (setting [11]); 20% in data set [1] (setting [12]); 10% in data set [1] (setting [9]); 0% in data set [2] (L 1210, 1 mg/kg i.p. on D1, day 30); 0% in data set [2] (L 1210, 2 mg/kg i.p. on D1, day 30); 0% in data set [2] (setting [10]). The “occurrence of peritonitis in relation” value in data set [3] (mouse, in vivo, ip) was “seems to be correlated with the presence of 1,2-diaminocyclohexane”. The IC50 in data set [4] stood at 130 nM. Besides, the “LD0 (maximum nonlethal dose)” value in data set [6] came out at 7 mg/kg. Moreover, the “renal and hepatic alterations” value in data set [7] (mouse, in vivo, ip) is recorded as “vascular alterations without any hyaline casts”.

`NC1CCCCC1N.O=C([O-])CC(=O)[O-].[Pt+2]` (stereo not drawn) [PHM, cis-malonato (1,2 diaminocyclohexane) platinum (II)]: the ILS in data set [1] (5 mg/kg) amounted to 25%; in data set [1] (10 mg/kg), 36%; in data set [1] (20 mg/kg), 44%; in data set [1] (40 mg/kg), 60%; in data set [1] (50 mg/kg), 96%; in data set [2] (50 mg/kg, single i.p. on D1), 103%. Moreover, the Survivals in data set [1] (setting [13]) is listed as 0%; in data set [1] (setting [14]), 0%; in data set [1] (S 180, 20 mg/kg i.p. on D1, day 60) it was 0%; in data set [1] (S 180, 40 mg/kg i.p. on D1, day 60) it was 0%; in data set [1] (setting [15]), 0%; in data set [2] (L 1210, 50 mg/kg i.p. on D1, day 30), 10%. In addition, the “occurrence of peritonitis in relation” value in data set [3] (mouse, in vivo, ip) is “seems to be correlated with the presence of 1,2-diaminocyclohexane”. Also, the peritonitis result in data set [3] (mouse, in vivo, ip) is “most of the mice reaching 30 days of survival treatment with PHM and PHIC developed peritonitis”. In addition, the IC50 in data set [4] came out at 390 nM. Moreover, the “renal and hepatic alterations” value in data set [7] (mouse, in vivo, ip) was “These alterations were observed”.

`NC1CCCCC1N.O.O=S(=O)([O-])[O-].[Pt+2]` (stereo not drawn) [PHS, cis-sulfatomonoaquo(1,2 diaminocyclohexane) platinum (II)]: the ILS in data set [1] (0.5 mg/kg) came to 4%; in data set [1] (1 mg/kg), 10%; in data set [1] (2 mg/kg), 25%; in data set [1] (4 mg/kg), 47%; in data set [1] (5 mg/kg), 112%; in data set [2] (5 mg/kg, single i.p. on D1) it was 112%. For the same compound, the Survivals in data set [1] (S 180, 0.5 mg/kg i.p. on D1, day 60) is given as 0%; in data set [1] (setting [11]) it was 0%; in data set [1] (setting [12]), 0%; in data set [1] (setting [9]), 0%; in data set [1] (setting [13]), 10%; in data set [2] (L 1210, 5 mg/kg i.p. on D1, day 30), 40%. Besides, the “occurrence of peritonitis in relation” value in data set [3] (i.p.) is on record as “seems to be correlated with the presence of 1,2-diaminocyclohexane”. Moreover, in data set [4], the IC50 was found to be 190 nM. The “change to chlorinated derivative in sodium chloride solution” value in data set [8] is “almost instantaneously to the formation of a yellow insoluble chlorinated compound”. Moreover, the “renal and hepatic alterations” value in data set [7] (i.p. at ~LD0 (mg/kg): PDD 8, PAC 100, PHM 50, PHD 4, PHS 5, PHC 120, PHIC 150, D1, D4, D10) is “vascular dilation and proximal distorted tubules”.

As to “cis-(t-aconitato) (1,2-diaminocyclohexane) platinum (II) [PHTA, reference compound]”, in data set [2] (500 mg/kg, single injection on D1), the ILS stood at 13%. Further, the “LD0 (maximum nonlethal dose)” value in data set [6] is > 500 mg/kg.

Turning to “cis-citrato (1,2-diaminocyclohexane) platinum (II) [PHC]”, the ILS in data set [1] (10 mg/kg) is reported as 20%; in data set [1] (25 mg/kg), 124%; in data set [1] (50 mg/kg), 121%; in data set [2] (120 mg/kg, single i.p. on D1, with 5 mice only) it was 90%. For the same compound, the Survivals is 0% in data set [1] (setting [14]); 20% in data set [1] (S 180, 25 mg/kg i.p. on D1, day 60); 30% in data set [1] (setting [15]); 0% in data set [2] (L 1210, 120 mg/kg i.p. on D1, day 30). For the same compound, the “occurrence of peritonitis in relation” value in data set [3] (mouse, in vivo, ip) was “seems to be correlated with the presence of 1,2-diaminocyclohexane”. Also, the “renal and hepatic alterations” value in data set [7] (mouse, in vivo, ip) was “did not provoke any significant alterations”.

In turn, cis-citratodiammineplatinum (II) [PAC] showed an ILS in data set [2] (100 mg/kg, single injection on D1) of 17%. Also, in data set [3] (mouse, in vivo, ip), the “occurrence of peritonitis in relation” value is listed as “never observed”. Moreover, the “LD0 (maximum nonlethal dose)” value in data set [6] worked out at 125 mg/kg. Also, the “renal and hepatic alterations” value in data set [7] (mouse, in vivo, ip) was “These alterations were observed”.

“cis-isocitratodiammineplatinum(II) [PAIC]” gave an ILS in data set [2] (75 mg/kg, single injection on D1) of 74%. Besides, the “occurrence of peritonitis in relation” value in data set [3] (mouse, in vivo, ip) is on record as “never observed”. For the same compound, in data set [6], the “LD0 (maximum nonlethal dose)” value is 75 mg/kg.

These data come from patent US4452812A, “Organic complex of platinum, its preparation and its use for treating malignant tumors” (Sanofi, priority 1980, dated 1984).
